The subject of one data set is BSR-T7/5 cells. In words: Toxicity studies (MTT or Alamar Blue cell viability) in the pWR-LUC:BSR-T7/5 system. As to conditions: for toxicity:activity (T:A) ratio (CC50/IC1050): pWR-LUC:BSR-T7/5 system. A general note: Alamar Blue is a resazurin reagent that responds to reducing activity.
A further data set deals with WEEV replicon pWR-LUC. Description: organism not typed. The class given is cell-based.
Data set [1] has as its system FMV.
A further data set concerns EEEV replicon. The class given is cell-based.
A further data set relates to SINV. The settings on record: 12.5 µM.
Data set [2] deals with FMV. Format: cell-based, Fort Morgan virus (FMV) strain CM4-146.
For the next data set, the system named is WEEV. The class given is cell-based, WEEV strain Cba87.
A further data set deals with VEEV replicon. The class given is cell-based.
Data set [3] deals with FMV. The class given is cell-based, Fort Morgan virus (FMV) strain CM4-146. The source holds these as a separate data set.

SMILES strings stand for the structures. Read-outs that look alike come from different tables or passages of the source.

As usually defined, the IC50 is the concentration needed to halve the response being measured. Turning to `O=C(NCc1ccco1)C1CCN(C(=O)c2cc3sccc3n2Cc2ccc(F)cc2)CC1` [Compound 32091], the “cytotoxicity (in words)” value in the data set on BSR-T7/5 cells (FIG. 2 dose-response, BSR-T7/5 cells transfected with pWR-LUC) is “minimal cytotoxicity”. For the same compound, the “toxicity:activity (T:A) ratio (CC50/IC1050)” value in the data set on BSR-T7/5 cells is on record as “greater than 20”. In addition, in the data set with WEEV replicon pWR-LUC (read-out: IC50), the IC50 came to 9.3 µM. Besides, in the data set on FMV [1], the “concentration effectively suppressing FMV-induced CPE (lowest concentration tested)” value was not above 3 µM. Also, the “cell viability of FMV-infected cells” value in the data set on FMV [1] (12.5 µM) worked out at 70%. In addition, the “activity against EEEV replicon (in words)” value in the data set on EEEV replicon is on record as “broad activity”. For the same compound, the “cell viability of SINV-infected cells” value in the data set on SINV is 50%. In addition, the “reduction of accumulation of viral RNAs encoding nsP2 or E1” value in the data set with FMV [2] and in the data set with WEEV was 80-90% in each case. Moreover, the “activity against VEEV replicon (in words)” value in the data set on VEEV replicon is given as “broad activity”. Moreover, in the data set with FMV [3], the “suppression of infectious FMV production” value is more than 90%.

`COc1c(C)c2c(c(O)c1C/C=C(\C)CCC(=O)O)C(=O)OC2` [mycophenolic acid]: the “suppression of fLUC expression” value with WEEV replicon pWR-LUC is on record as “approximately 80%”.

With `NC(=O)c1ncn([C@@H]2O[C@H](CO)[C@@H](O)[C@H]2O)n1` [ribavirin], the “toxicity:activity (T:A) ratio (CC50/IC1050)” value with BSR-T7/5 cells is given as 19. The “suppression of fLUC expression” value with WEEV replicon pWR-LUC is on record as “approximately 80%”. In the data set with WEEV replicon pWR-LUC (BSR-T7/5), this compound returned an IC50 of 16 µM.

These data come from patent publication US20100152200A1, “[…] USES THEREOF” (priority 2008, published 2010).
